Like-named read-outs stand apart in the source and are kept apart here. Starred links: 1 amine or outer side, 2 acyl side, 3 side chain; linkers in the order of their positions; H or OH if unused. Non-standard residues stand in square brackets, D forms with d. Residues, ends and D or L forms follow the SMILES beside them. X6 = N=C(N)NCCC[C@H](N[*:1])C(=O)c1nc2ccc(C(=O)[*:2])cc2s1
How the values were obtained:
[1] = biological target: recombinant thrombin (Homo sapiens, UniProt P00734); test: Chromogenic kinetic enzyme assay of thrombin (S2238); type: biochemical; settings: Table 2; chromogenic assay; read-out: Thrombin* (IC50 nM)
Protocol: Using GraphPad Prism (GraphPad Software, San Diego, CA), a four-parameter curve fit was used to determine the inhibitor IC50s from a plot of the mean reaction velocity versus the inhibitor concentration. The IC50 values represent the average of three or more separate experimental determinations. Apparent Ki values were calculated from the IC50 values using the Cheng and Prusoff equation (Ki=IC50/(1+[S]/Km).
Using GraphPad Prism version 6.04 software program, (GraphPad Software, San Diego, CA, graphpad.com), a four parameter curve fit was used to determine the inhibitor IC50s from a plot of the mean reaction velocity versus the inhibitor concentration.
Fluorescent inhibitor and chromogenic proteolytic assays were performed for compounds prepared in Example 11 in general accordance with the procedures described in Example 9.

[2] = tested on: VSVpp (SARS-2-S) entry into TMPRSS2-positive Calu-3 cells
[3] = biological target: T1, activated hepsin (Homo sapiens, UniProt P05981); test: Fluorescent kinetic enzyme assay of hepsin activity (Boc-QAR-AMC); type: biochemical
T1 construct: purchased R&D Systems 4776-SE-010
T1 sequence (P05981 163-417 limits assumed): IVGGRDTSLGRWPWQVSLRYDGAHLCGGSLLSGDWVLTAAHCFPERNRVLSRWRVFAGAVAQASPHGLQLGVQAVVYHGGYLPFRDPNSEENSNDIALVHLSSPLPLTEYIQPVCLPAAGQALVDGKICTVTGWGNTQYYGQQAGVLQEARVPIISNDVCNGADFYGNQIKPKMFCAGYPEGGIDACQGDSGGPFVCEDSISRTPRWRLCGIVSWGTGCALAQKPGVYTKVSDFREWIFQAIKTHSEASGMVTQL
T1 sequence (P05981 1-162 partner limits assumed): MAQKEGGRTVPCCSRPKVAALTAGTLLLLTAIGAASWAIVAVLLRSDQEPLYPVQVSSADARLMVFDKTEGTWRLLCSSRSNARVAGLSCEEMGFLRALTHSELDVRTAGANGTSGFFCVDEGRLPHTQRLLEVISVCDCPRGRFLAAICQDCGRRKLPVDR

[4] = biological target: T2, KLK5 (Homo sapiens, UniProt Q9Y337); test: Fluorescent kinetic enzyme inhibitor assay of KLK5 (Boc-VPR-AMC); type: biochemical; settings: Table 4; 7.5 nM KLK5, 100 μM substrate
T2 construct: purchased R&D Systems 1108-SE-010
T2 sequence (Q9Y337 23-293): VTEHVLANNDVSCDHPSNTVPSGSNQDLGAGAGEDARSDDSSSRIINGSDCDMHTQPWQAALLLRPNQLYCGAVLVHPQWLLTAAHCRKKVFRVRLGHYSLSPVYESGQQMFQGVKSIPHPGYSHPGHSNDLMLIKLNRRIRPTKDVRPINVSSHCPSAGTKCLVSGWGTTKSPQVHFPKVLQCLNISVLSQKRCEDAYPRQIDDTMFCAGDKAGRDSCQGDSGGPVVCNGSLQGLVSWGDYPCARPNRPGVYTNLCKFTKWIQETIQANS
Protocol: Fluorescent Kinetic Enzyme Inhibitor Assay of KLK5: Inhibitors (11-pt serial dilutions, 0-20 μM final concentration in reaction) were serially diluted in DMSO (2% DMSO final concentration) and then mixed with KLK5 (#1108-SE-010, R&D Systems, Minneapolis, Minnesota) in black 384 well plates (Corning #3575. Corning, NY). The final assay concentration for KLK5 is 7.5 nM in TNC buffer (25 mM Tris, 150 mM NaCl, 5 mM CaCl2), 0.01% Triton X-100, pH 8). After thirty minutes incubation at room temperature, Boc-VPR-AMC substrate was added. The final substrate concentrations for assay is 100 μM. Changes in fluorescence (excitation at 380 nm and emission at 460 nm) were measured at room temperature over time in a Biotek Synergy 2 plate reader (Winnoski, VT). Using GraphPad Prism version 6.04 software program, (GraphPad Software, San Diego, CA, graphpad.com), a four parameter curve fit was used to determine the inhibitor IC50s from a plot of the mean reaction velocity versus the inhibitor concentration. The IC50 values represent the average of three or more separate experimental determinations.

[5] = biological target: T3, matriptase (Homo sapiens, UniProt Q9Y5Y6); test: Fluorescent kinetic enzyme assay of matriptase activity (Boc-QAR-AMC); type: biochemical; settings: Table 2; read-out: Matriptase (IC50 nM)
T3 construct: purchased R&D Systems 3946-SE-010
T3 sequence (Q9Y5Y6 615-855 limits assumed): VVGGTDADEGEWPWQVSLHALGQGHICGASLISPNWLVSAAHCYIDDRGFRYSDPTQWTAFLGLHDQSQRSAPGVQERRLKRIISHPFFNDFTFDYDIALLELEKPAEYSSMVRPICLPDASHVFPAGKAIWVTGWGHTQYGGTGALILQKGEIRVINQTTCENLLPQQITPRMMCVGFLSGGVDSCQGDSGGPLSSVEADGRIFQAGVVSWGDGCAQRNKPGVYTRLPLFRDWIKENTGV

[6] = biological target: Factor Xa (Homo sapiens, UniProt P00742); test: Chromogenic kinetic enzyme assay of Factor Xa (S2222); type: biochemical; settings: Table 2; chromogenic assay; read-out: Factor Xa* (IC50 nM)
Chain of Factor Xa (P00742 235-488 limits assumed): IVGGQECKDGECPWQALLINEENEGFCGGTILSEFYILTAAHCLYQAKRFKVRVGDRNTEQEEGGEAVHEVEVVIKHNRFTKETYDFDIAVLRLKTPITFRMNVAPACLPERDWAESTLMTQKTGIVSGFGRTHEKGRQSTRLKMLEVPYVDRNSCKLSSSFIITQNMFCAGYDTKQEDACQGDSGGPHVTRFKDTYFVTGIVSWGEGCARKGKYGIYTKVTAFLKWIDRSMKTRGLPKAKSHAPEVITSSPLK
Chain of Factor Xa (P00742 41-179 partner limits assumed): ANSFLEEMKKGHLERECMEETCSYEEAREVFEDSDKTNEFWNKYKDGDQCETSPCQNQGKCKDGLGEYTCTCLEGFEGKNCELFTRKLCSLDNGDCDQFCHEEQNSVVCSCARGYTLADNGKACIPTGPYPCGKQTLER

[7] = Table 2, read-out: Hepsin (IC50 nM)

In the case of `CSCC[C@@H]1NC(=O)[C@@H](NC(C)=O)CC(=O)NCCCC[C@@H](C(=O)N[C@@H](CCCNC(=N)N)C(=O)c2nc3ccccc3s2)NC1=O` [VD3173, (3S,6S,14S)-6-acetamido-N—((S)-1-(benzo[d]thiazol-2-yl)-5-guanidino-1-oxopentan-2-yl)-3-(2-(methylthio)ethyl)-2,5,8-trioxo-1,4,9-triazacyclotetradecane-14-carboxamide], the IC50 [1] is reported as over 20000 nM, the “Calu-3 EC50 (nM)” value [2] is reported as “almost equivalent activity” and the EC50 [2] is reported as 119 nM.

With `CC(=O)N[C@H]1Cc2cn(nn2)CCCC[C@H](C(=O)N[C@@H](CCCNC(=N)N)C(=O)c2nc3ccccc3s2)NC(=O)[C@H](CC(C)C)NC1=O` [VD4090, (3S,6S,9R,Z)-3-acetamido-N—((S)-1-(benzo[d]thiazol-2-yl)-5-guanidino-1-oxopentan-2-yl)-6-isobutyl-4,7-dioxo-11H-5,8-diaza-1(4,1)-triazolacyclotridecaphane-9-carboxamide] the IC50 [3, 7] was 14.1 nM, the IC50 [4] was 9390 nM and the IC50 [5] was 39.1 nM.

`CC(=O)N[C@H]1CC(=O)NCCCC[C@@H](C(=O)N[C@@H](CCCNC(=N)N)C(=O)c2nc3ccccc3s2)NC(=O)[C@H](CC(C)C)NC1=O` [VD2173, (3S,6S,14S)-6-acetamido-N—((S)-1-(benzo[d]thiazol-2-yl)-5-guanidino-1-oxopentan-2-yl)-3-isobutyl-2,5,8-trioxo-1,4,9-triazacyclotetradecane-14-carboxamide] showed an IC50 [1] of 699 nM, an IC50 [3, 7] of 8.4 nM and an IC50 ([3]; Table 6, read-out: Hepsin IC50) of 10 nM. It also gave an EC50 [2] of 104 nM.

`CC(=O)N[C@H]1C/C=C\COc2ccc(cc2)C[C@@H](C(=O)N[C@@H](CCCNC(=N)N)C(=O)c2nc3ccccc3s2)NC(=O)[C@H](CC(C)C)NC1=O` [VD4051, (7S,10S,13S,E)-7-acetamido-N—((S)-1-(benzo[d]thiazol-2-yl)-5-guanidino-1-oxopentan-2-yl)-10-isobutyl-8,11-dioxo-2-oxa-9,12-diaza-1(1,4)-benzenacyclotetradecaphan-4-ene-13-carboxamide] was tested, and the IC50 [6] was 8810 nM, the IC50 [3, 7] was 102 nM and the IC50 [5] was 80.2 nM. For the same compound, the EC50 [2] was 565 nM.

Compound `CC(=O)N[C@@H](Cc1c[nH]c2ccccc12)C(=O)N[C@@H](Cc1ccccc1)C(=O)N[C@@H](CCCNC(=N)N)C(=O)c1nc2ccccc2s1` [AcWFRkbt, Ac-WFR-kbt] has an IC50 [4] of over 20000 nM.

In the case of `CC(=O)N[C@H]1CC(=O)NCCCC[C@@H](C(=O)N[C@@H](CCCNC(=N)N)B(O)O)NC(=O)[C@H](CC(C)C)NC1=O` [MM2030], the IC50 [4] is reported as 18100 nM.

In the case of `CC(=O)N[C@@H](Cc1c[nH]c2ccccc12)C(=O)N[C@@H](CC(C)C)C(=O)N[C@@H](Cc1ccccc1)C(=O)N[C@@H](CCCNC(=N)N)C(=O)c1nc2ccccc2s1` [ZFH7064, Ac-WLFR-kbt], the “Calu-3 EC50 (nM)” value [2] is reported as “excellent potency” and the EC50 [2] is reported as 150 nM.

`CC(=O)N[C@@H](CC(C)C)C(=O)N[C@@H](CC(C)C)C(=O)N[C@H](C=O)CCCNC(=N)N` [Leupeptin, reference compound] gave an IC50 [4] of over 20000 nM.

`CC(=O)N[C@@H](CO)C(=O)N[C@@H](CCCCN)C(=O)N[C@@H](CC(C)C)C(=O)N[C@@H](CCCNC(=N)N)C(=O)c1nc2ccc(C(=O)N[C@H](C(N)=O)C(C)C)cc2s1` [ZFH7116, Ac-SKLR kbt V-amide] (Ac-SKL[X6]V-NH2) gave an IC50 ([3]; Table 6, read-out: Hepsin IC50) of 0.5 nM and an EC50 [2] of 307 nM.

With `CC(=O)N[C@@H](CC(C)C)C(=O)N[C@@H](CC(C)C)C(=O)N[C@@H](CCCNC(=N)N)C(=O)c1nccs1` [ZFH6201, Ac-LLR-kt] the EC50 [2] was 349 nM.

`CC(=O)N[C@H](Cc1c[nH]c2ccccc12)C(=O)N[C@@H](Cc1ccccc1)C(=O)N[C@@H](CCCNC(=N)N)C(=O)c1nc2ccccc2s1` [PK-1-89, Ac-dWFR-kbt] gave an EC50 [2] of 32 nM.
